Drawing on ChEMBL document CHEMBL4680300, “Synthesis, biological evaluation, and NMR studies of 3-fluorinated derivatives of 3',4',5'-trihydroxyflavone and 3',4',5'-trimethoxyflavone” (Bioorg Med Chem Lett, 2021), this text covers EC50, Activity and Stabilty for six compounds.

The nature of data set [1]: Antioxidant activity assessed as DPPH radical scavenging activity incubated for 20 mins in dark conditions. In kind it is functional. (The DPPH test is a chemical assay of radical scavenging.)
For data set [2], the system named is Neuron. Briefly: Neuroprotective activity in Sprague-Dawley rat cortical neurons assessed as reduction in glutamate-induced cell death preincubated for 1 hr followed by glutamate stimulation and measured after 24 hrs by MTS assay. In kind it is functional, tissue-based. The settings on record: time 25.0 hrs. A general note: Formazan colour is commonly taken as a measure of viable cells.

The nature of data set [3]: Stability of the compound in DMSO assessed as formation of ortho-quinone intermediate in presence of DPPH measured after 20 mins by NMR analysis. In kind it is physicochemical.
Data set [4] concerns Neuron. Kind of data set: Neuroprotective activity in Sprague-Dawley rat cortical neurons assessed as reduction in glutamate-induced reactive oxygen species level incubated for 1 hr by DCFDA fluorescence-based microplate reader relative to control. In kind it is functional, tissue-based.
Data set [5] is described as follows: Stability of the compound in DMSO assessed as formation of ortho-quinone intermediate in presence of DPPH measured by mass spectrometry. In kind it is physicochemical.

Values after ≈ are worked out from the molar mass of the structure shown. Active and inactive are the calls of the source. The rule behind the calls is not given here.

The EC50 is the concentration giving half of the maximal effect. For the compound `O=c1c(F)c(-c2cc(O)c(O)c(O)c2)oc2ccccc12`, the EC50 in data set [1] was 0.24 µg/mL (≈ 0.833 µM). Moreover, the result in the data set on Neuron [2] and in the data set on Neuron [4] was Active. Also, the Stabilty entry in data set [3] and in data set [5] was “Unstable” each time.

Regarding `COc1cc(-c2oc3ccccc3c(=O)c2F)cc(OC)c1OC`, the EC50 in data set [1] came to 37.14 µg/mL (≈ 112 µM).

Consider `O=C1O[C@H]([C@@H](O)CO)C(O)=C1O` [ASCORBIC ACID], for which the EC50 in data set [1] is 0.16 µg/mL (≈ 0.908 µM).

`C[C@]12N[C@H](Cc3ccccc31)c1ccccc12`: the result in the data set with Neuron [2] was Active.

As to `COc1cc(-c2cc(=O)c3ccccc3o2)cc(OC)c1OC`, the EC50 in data set [1] worked out at 71.66 µg/mL (≈ 229 µM).

`O=c1cc(-c2cc(O)c(O)c(O)c2)oc2ccccc12`: the EC50 in data set [1] came to 0.33 µg/mL (≈ 1.22 µM). For the same compound, the result in the data set with Neuron [2] was Active.
